The target of this assay is T1, c-Met kinase (recombinant c-Met) (Homo sapiens, UniProt P08581).
T1 construct: 0.27 nM recombinant c-Met
T1 sequence (P08581 25-1390): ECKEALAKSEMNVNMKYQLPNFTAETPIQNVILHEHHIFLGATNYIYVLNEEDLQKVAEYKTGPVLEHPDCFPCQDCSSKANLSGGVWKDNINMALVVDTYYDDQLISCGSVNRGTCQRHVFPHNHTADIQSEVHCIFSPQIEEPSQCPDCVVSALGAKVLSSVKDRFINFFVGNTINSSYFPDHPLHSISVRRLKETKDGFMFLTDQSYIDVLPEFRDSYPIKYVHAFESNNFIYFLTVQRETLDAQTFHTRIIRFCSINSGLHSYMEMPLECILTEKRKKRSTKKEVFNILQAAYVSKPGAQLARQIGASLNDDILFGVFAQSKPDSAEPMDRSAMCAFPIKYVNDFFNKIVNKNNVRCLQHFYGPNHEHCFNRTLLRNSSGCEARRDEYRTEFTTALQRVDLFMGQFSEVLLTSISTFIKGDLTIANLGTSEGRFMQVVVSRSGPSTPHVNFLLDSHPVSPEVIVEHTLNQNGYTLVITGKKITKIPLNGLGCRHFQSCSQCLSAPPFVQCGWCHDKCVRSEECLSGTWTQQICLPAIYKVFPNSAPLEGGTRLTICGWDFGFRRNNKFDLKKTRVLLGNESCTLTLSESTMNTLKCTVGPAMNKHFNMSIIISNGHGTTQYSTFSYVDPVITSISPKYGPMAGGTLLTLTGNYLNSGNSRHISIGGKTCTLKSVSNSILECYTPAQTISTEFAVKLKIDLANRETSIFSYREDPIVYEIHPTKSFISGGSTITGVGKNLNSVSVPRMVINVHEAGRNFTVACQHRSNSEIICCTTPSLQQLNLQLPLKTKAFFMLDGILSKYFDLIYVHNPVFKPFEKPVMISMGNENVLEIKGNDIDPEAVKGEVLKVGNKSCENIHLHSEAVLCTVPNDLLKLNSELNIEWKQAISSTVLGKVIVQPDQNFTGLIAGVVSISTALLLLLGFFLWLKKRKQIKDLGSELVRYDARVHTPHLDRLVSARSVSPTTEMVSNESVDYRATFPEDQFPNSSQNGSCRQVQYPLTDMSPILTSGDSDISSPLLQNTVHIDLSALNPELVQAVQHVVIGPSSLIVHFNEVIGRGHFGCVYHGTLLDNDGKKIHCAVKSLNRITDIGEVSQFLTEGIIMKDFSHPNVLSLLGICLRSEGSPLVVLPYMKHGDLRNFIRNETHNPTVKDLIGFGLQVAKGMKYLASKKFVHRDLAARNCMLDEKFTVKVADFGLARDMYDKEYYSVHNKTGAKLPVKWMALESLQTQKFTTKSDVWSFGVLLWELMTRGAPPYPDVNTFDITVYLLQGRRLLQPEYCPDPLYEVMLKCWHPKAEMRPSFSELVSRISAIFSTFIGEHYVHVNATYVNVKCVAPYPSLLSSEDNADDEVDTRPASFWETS
Briefly: In vitro kinase assay I (homogeneous time-resolved fluorescence tyrosine kinase assay). Type of assay: biochemical. The method in brief: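 Biotinylated peptide (0.5 μM) phosphorylated by 0.2 nM recombinant c-Met with 50 μM MgATP, 60 min at room temperature, pH 7.4, 5% DMSO. EDTA stop; HTRF read with Eu-anti-phosphotyrosine antibody and streptavidin-APC. IC50 from 4-parameter logistic fit.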
As usually defined, the IC50 is the midpoint of a concentration-inhibition curve. For the molecule `Cn1cc(-n2ccc(=O)c(Cc3cccc(-c4ncc(-c5cncc(F)c5)cn4)c3)n2)cn1` [Example 414, 3-{3-[5-(5-fluoropyridin-3-yl)pyrimidin-2-yl]benzyl}-1-(1-methyl-1H-pyrazol-4-yl)pyridazin-4(1H)-one], the IC50 is less than 100 nM.
Then `O=C(Nc1cccc(Cc2nn(-c3cc(F)c(F)c(F)c3)ccc2=O)c1)OCC1COCCO1` (racemic) [Example 513, rac-1,4-dioxan-2-ylmethyl (3-{[4-oxo-1-(3,4,5-trifluorophenyl)-1,4-dihydropyridazin-3-yl]methyl}phenyl)carbamate], with less than 100 nM.
Then `CCCn1cnc(-c2cccc(Cc3nn(-c4ccc(F)c(F)c4)ccc3=O)c2)n1` [Example 80, 1-(3,4-difluorophenyl)-3-[3-(1-propyl-1H-1,2,4-triazol-3-yl)benzyl]pyridazin-4(1H)-one], with less than 100 nM; and `COc1cnc(-c2cccc(Cc3nn(-c4ccc(OC)nc4)ccc3=O)c2)nc1` [Example 33, 1-(6-methoxypyridin-3-yl)-3-[3-(5-methoxypyrimidin-2-yl)benzyl]pyridazin-4(1H)-one], with less than 100 nM; and `CCn1cnc(-c2cccc(Cc3nn(-c4cnn(CCO)c4)ccc3=O)c2)n1` [Example 191, 3-[3-(1-Ethyl-1H-1,2,4-triazol-3-yl)benzyl]-1-[1-(2-hydroxyethyl)-1H-pyrazol-4-yl]pyridazin-4(1H)-one], with less than 100 nM.
Next, `Cn1cc(-n2ccc(=O)c(Cc3ccc4cnccc4c3)n2)cn1` [Example 74, 3-(isoquinolin-6-ylmethyl)-1-(1-methyl-1H-pyrazol-4-yl)pyridazin-4(1H)-one]: 100 to 1000 nM; `CCn1cc(-n2ccc(=O)c(C(C)c3cccc(-c4ncc(OCCN5CCOCC5)cn4)c3)n2)cn1` (single isomer, unassigned) [Example 300, 1-(1-ethyl-1H-pyrazol-4-yl)-3-[(1R or S)-1-{3-[5-(2-morpholin-4-ylethoxy)pyrimidin-2-yl]phenyl}ethyl]pyridazin-4(1H)-one]: less than 100 nM.
On to `Cn1cc(-n2ccc(=O)c(Cc3cccc(NC(=O)OCCN4CCC(F)(F)C4)c3)n2)cn1` [Example 524, 2-(3,3-difluoropyrrolidin-1-yl)ethyl (3-{[1-(1-methyl-1H-pyrazol-4-yl)-4-oxo-1,4-dihydropyridazin-3-yl]methyl}phenyl)carbamate], for which the IC50 is less than 100 nM.
Next, `CCOc1cnc(-c2cccc(Oc3nn(-c4cnn(C)c4)ccc3=O)c2)nc1` [Example 755, 3-[3-(5-Ethoxypyrimidin-2-yl)phenoxy]-1-(1-methyl-1H-pyrazol-4-yl)pyridazin-4(1H)-one]: 1000 to 3000 nM; `O=c1ccn(-c2ccc(F)c(F)c2)nc1Cc1cccc(-c2ncc(OC3COC3)cn2)c1` [Example 326, 1-(3,4-difluorophenyl)-3-{3-[5-(oxetan-3-yloxy)pyrimidin-2-yl]benzyl}pyridazin-4(1H)-one]: less than 100 nM.
Take `Cn1cc(-n2ccc(=O)c(Cc3cccc(-c4ncc(CCCO)cn4)c3)n2)cn1` [Example 395, 3-{3-[5-(3-hydroxypropyl)pyrimidin-2-yl]benzyl}-1-(1-methyl-1H-pyrazol-4-yl)pyridazin-4(1H)-one]: the IC50 was less than 100 nM.
Next, `CCOc1cnc(-c2cccc(Cc3nn(-c4ccc(Br)c(F)c4)ccc3=O)c2)nc1` [Example 145, 1-(4-Bromo-3-fluorophenyl)-3-[3-(5-ethoxypyrimidin-2-yl)benzyl]pyridazin-4(1H)-one]: less than 100 nM.
Then `CCOC(=O)Nc1cccc(Cc2nn(-c3ccccc3)ccc2=O)c1` [Example 642, Ethyl {3-[(4-oxo-1-phenyl-1,4-dihydropyridazin-3-yl)methyl]phenyl}carbamate], with 100 to 1000 nM; and `CCn1cc(-n2ccc(=O)c(Cc3cccc(-c4ncc(OCC5CCN(C)CC5)cn4)c3)n2)cn1` [Example 172, 1-(1-ethyl-1H-pyrazol-4-yl)-3-(3-{5-[(1-methylpiperidin-4-yl)methoxy]pyrimidin-2-yl}benzyl)pyridazin-4(1H)-one], with less than 100 nM.
For the molecule `Cn1cc(-n2ccc(=O)c(Cc3cccc(NC(=O)OCCOC4CCCCC4)c3)n2)cn1` [Example 577, 2-(cyclohexyloxy)ethyl (3-{[1-(1-methyl-1H-pyrazol-4-yl)-4-oxo-1,4-dihydropyridazin-3-yl]methyl}phenyl)carbamate], the IC50 is less than 100 nM.
Then `Cn1cc(-n2ccc(=O)c(Cc3cccc(NC(=O)OCCCN4CCS(=O)(=O)CC4)c3)n2)cn1` [Example 566, 3-(1,1-dioxidothio-morpholin-4-yl)propyl (3-{[1-(1-methyl-1H-pyrazol-4-yl)-4-oxo-1,4-dihydropyridazin-3-yl]methyl}phenyl)carbamate], with less than 100 nM; and `O=C(Nc1cccc(Cc2nn(-c3cc(F)c(F)c(F)c3)ccc2=O)c1)OCC1CCOCC1` [Example 558, tetrahydro-2H-pyran-4-ylmethyl (3-{[4-oxo-1-(3,4,5-trifluorophenyl)-1,4-dihydropyridazin-3-yl]methyl}phenyl)carbamate], with less than 100 nM.
`CCn1cc(-n2ccc(=O)c(Cc3cccc(-c4ncc(-c5cnn(C)c5)cn4)c3)n2)cn1` [Example 157, 1-(1-ethyl-1H-pyrazol-4-yl)-3-{3-[5-(1-methyl-1H-pyrazol-4-yl)pyrimidin-2-yl]benzyl}pyridazin-4(1H)-one]: the IC50 was less than 100 nM.
With `Cn1cc(-n2ccc(=O)c(Cc3cccc(-c4ncc(CCC(C)(C)O)cn4)c3)n2)cn1` [Example 437, 3-{3-[5-(3-hydroxy-3-methylbutyl)pyrimidin-2-yl]benzyl}-1-(1-methyl-1H-pyrazol-4-yl)pyridazin-4(1H)-one], the IC50 is less than 100 nM.
Consider `CCOc1cnc(-c2cccc(Cc3nn(-c4cc(F)cc(F)c4)ccc3=O)c2)nc1` [Example 146, 1-(3,5-difluorophenyl)-3-[3-(5-ethoxypyrimidin-2-yl)benzyl]pyridazin-4(1H)-one], for which the IC50 is less than 100 nM.
As to `Cn1cc(-n2ccc(=O)c(Cc3cccc(-c4ncc(N5CCC6CCCCC6C5)cn4)c3)n2)cn1` (mixture of isomers) [Example 443, 1-(1-methyl-1H-pyrazol-4-yl)-3-{3-[5-(octahydroiso-quinolin-2(1H)-yl)pyrimidin-2-yl]benzyl}pyridazin-4(1H)-one], the IC50 is less than 100 nM.
Next, `COC(C)c1cnc(-c2cccc(Cc3nn(-c4cnn(C)c4)ccc3=O)c2)nc1` (racemic) [Example 166, rac-3-{3-[5-(1-methoxyethyl)pyrimidin-2-yl]benzyl}-1-(1-methyl-1H-pyrazol-4-yl)pyridazin-4(1H)-one]: 100 to 1000 nM; `CCc1cnc(-c2cccc(C(C)c3nn(-c4cnn(C)c4)ccc3=O)c2)nc1` (single isomer, unassigned) [Example 237, 3-{(1R or S)-1-[3-(5-ethylpyrimidin-2-yl)phenyl]ethyl}-1-(1-methyl-1H-pyrazol-4-yl)pyridazin-4(1H)-one]: less than 100 nM.
Next, `CC(=O)Nc1cccc(Cc2nn(-c3ccccc3)ccc2=O)c1` [Example 631, N-{3-[(4-Oxo-1-phenyl-1,4-dihydropyridazin-3-yl)methyl]phenyl}acetamide]: 1000 to 3000 nM.
Then `CCOc1cnc(-c2cccc(Cc3nn(-c4cncc(C#N)c4)ccc3=O)c2)nc1` [Example 136, 5-{3-[3-(5-ethoxypyrimidin-2-yl)benzyl]-4-oxopyridazin-1(4H)-yl}pyridine-3-carbonitrile], with less than 100 nM; and `O=c1ccn(-c2ccc(F)c(F)c2)nc1Cc1cccc(-c2ncc(OC3CCOC3)cn2)c1` (single isomer, unassigned) [Example 349, 1-(3,4-difluorophenyl)-3-(3-{5-[(3R or S)-tetrahydrofuran-3-yloxy]pyrimidin-2-yl}benzyl)pyridazin-4(1H)-one], with less than 100 nM.
On to `CC1CC1COC(=O)Nc1cccc(Cc2nn(-c3cnn(C)c3)ccc2=O)c1` (mixture of isomers) [Example 574, (2-methylcyclopropyl)methyl (3-{[1-(1-methyl-1H-pyrazol-4-yl)-4-oxo-1,4-dihydropyridazin-3-yl]methyl}phenyl)carbamate], for which the IC50 was less than 100 nM.
Then `COCCOC(=O)Nc1cccc(C(C)c2nn(-c3cnn(C)c3)ccc2=O)c1` (single isomer, unassigned) [Example 653, 2-methoxyethyl (3-{(1R or S)-1-[1-(1-methyl-1H-pyrazol-4-yl)-4-oxo-1,4-dihydropyridazin-3-yl]ethyl}phenyl)carbamate], with 100 to 1000 nM.
As to `CCCC(c1cccc(-c2ncc(OCC)cn2)c1)c1nn(-c2cnn(C)c2)ccc1=O` (single isomer, unassigned) [Example 208, 3-{(1R or S)-1-[3-(5-ethoxypyrimidin-2-yl)phenyl]butyl}-1-(1-methyl-1H-pyrazol-4-yl)pyridazin-4(1H)-one], the IC50 was less than 100 nM.
For the molecule `Cn1cc(-n2ccc(=O)c(Cc3cccc(-c4ncc(N5CCC(O)CC5)cn4)c3)n2)cn1` [Example 442, 3-{3-[5-(4-hydroxypiperidin-1-yl)pyrimidin-2-yl]benzyl}-1-(1-methyl-1H-pyrazol-4-yl)pyridazin-4(1H)-one], the IC50 is less than 100 nM.
Then `CCn1cc(-n2ccc(=O)c(Cc3cccc(-c4ncc(OC5COC5)cn4)c3)n2)cn1` [Example 165, 1-(1-ethyl-1H-pyrazol-4-yl)-3-{3-[5-(oxetan-3-yloxy)pyrimidin-2-yl]benzyl}pyridazin-4(1H)-one], with less than 100 nM; and `O=c1ccn(-c2cc(F)c(F)c(F)c2)nc1Cc1ccc2ncnn2c1` [Example 10, 3-([1,2,4]triazolo[1,5-a]pyridin-6-ylmethyl)-1-(3,4,5-trifluorophenyl)pyridazin-4(1H)-one], with 1000 to 3000 nM; and `COCCCOc1cnc(-c2cccc(Cc3nn(-c4ccc(F)c(F)c4)ccc3=O)c2)nc1` [Example 320, 1-(3,4-difluorophenyl)-3-{3-[5-(3-methoxypropoxy)pyrimidin-2-yl]benzyl}pyridazin-4(1H)-one], with less than 100 nM.
